Measurements from patent publication US11053226B2, “KRAS G12C inhibitors and methods of using the same” (Amgen Inc., priority 2018, dated 2021).
Where two headings read alike, the source gives them in different places.

What was measured:
[1] = molecular target: GDP-bound KRAS protein (aa 1-169), containing both G12C and C118A amino acid substitutions (Homo sapiens (Human), UniProt P01116, C118A/G12C); experiment: Coupled Nucleotide Exchange Assay; type: biochemical
Experimental: For compounds in Table 9, the following assay conditions were employed:
Coupled Nucleotide Exchange Assay:
The assay plates were then read on a PerkinElmer EnVision Multilabel Reader, using AlphaScreen® technology, and data were analyzed using a 4-parameter logistic model to calculate IC50 values.

[2] = tested on: Phosphorylation of ERK1/2 in MIA PaCa-2 cells; experiment: Phospho-ERK1/2 MSD Assay; type: cell-based; details: MiaPaCa-2 cells
[3] = tested on: Phosphorylation of ERK1/2 in A549 cells; experiment: Phospho-ERK1/2 MSD Assay (A549); type: cell-based
[4] = read-out: Coupled Exchange IC50 (2 h), 2 h compound pre-incubation
[5] = read-out: Coupled Exchange IC50 (20 h), 20 h compound pre-incubation
[6] = Homo sapiens, MIA PaCa-2, 4 h, read-out: pERK IC50 (4 h, MiaPaCa-2), 4 h compound treatment
[7] = Homo sapiens, A549, 4 h, read-out: pERK IC50 (4 h, A549), 4 h compound treatment
[8] = Homo sapiens, MIA PaCa-2, read-out: pERK IC50 (4 h), 4 h compound treatment
[9] = Homo sapiens, read-out: pERK IC50 (4 h), 4 h compound treatment
[10] = read-out: Coupled Exchange IC50 (5 min), 5 min compound pre-incubation
[11] = read-out: pERK IC50 (4 h, MiaPaCa-2), 4 h compound treatment
[12] = read-out: pERK IC50 (4 h, A549), 4 h compound treatment

Sequence of GDP-bound KRAS protein (aa 1-169), containing both G12C and C118A amino acid substitutions (P01116 other isoform, or with tags, fused parts or gaps G12C/C118A): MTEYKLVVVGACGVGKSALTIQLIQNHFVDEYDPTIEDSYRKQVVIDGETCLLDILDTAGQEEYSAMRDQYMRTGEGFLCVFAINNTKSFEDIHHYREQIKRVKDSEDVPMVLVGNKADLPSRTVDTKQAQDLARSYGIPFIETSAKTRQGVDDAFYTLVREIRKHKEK

Row | Structure (SMILES) | IC50 [1, 4] [nM] | IC50 [1, 5] [nM] | IC50 [2, 6] [nM] | IC50 [3, 7] [nM] | IC50 [2, 8] [nM] | IC50 [3, 9] [nM] | IC50 [1, 10] [nM] | IC50 [2, 11] [nM] | IC50 [3, 12] [nM]
1 | C=CC(=O)N1CC(NC(=O)Cn2cc(C(=O)N3CCc4ccc(C)cc4C3)c3cc(Br)ccc32)C1 [Example 122] | 690 | 170 | 31400 | > 100000 | – | – | – | – | –
2 | C=CC(=O)N1CC(N(C)C(=O)Cn2c(C)c(C(=O)N3CCN(c4ccc(C)cn4)CC3)c3cc(Cl)cc(C)c32)C1 [Example 53] | 850 | 180 | 5000 | > 100000 | – | – | – | – | –
3 | C=CC(=O)N1CC(N(C)C(=O)Cn2c(CC)c(C(=O)N3CCc4c(cccc4OC)C3)c3cc(Cl)cc(C)c32)C1 [Example 4-2, 2-(5-Chloro-2-ethyl-3-((5-methoxy-3,4-dihydro-2(1H)-isoquinolinyl)carbonyl)-7-methyl-1H-indol-1-yl)-N-methyl-N-(1-(2-propenoyl)-3-azetidinyl)acetamide] | 150 | – | 210 | > 100000 | – | – | – | – | –
4 | C=CC(=O)N1CC(NC(=O)Cn2cc(C(=O)N3CCc4c(C)cccc4C3)c3cc(Br)ccc32)C1 [Example 86] | 680 | 170 | 14100 | > 100000 | – | – | – | – | –
5 | C=CC(=O)N1CC(NC(=O)Cn2c(C)c(C(=O)N3CCc4c(C)cccc4C3)c3cc(Br)ccc32)C1 [Example 25] | 540 | 90 | 2470 | > 100000 | – | – | – | – | –
6 | C=CC(=O)N1CC(NC(=O)Cn2c3ccc(Br)cc3c3ccc(Oc4ccccn4)nc32)C1 [Example 57] | 990 | 140 | – | – | 6810 | > 100000 | – | – | –
7 | C=CC(=O)N1CC(NC(=O)Cn2c(C)c(C(=O)N3[C@H](C)c4ccc(F)cc4C[C@@H]3C)c3cc(Br)cc(C)c32)C1 [Example 9] | 200 | – | 1560 | 41600 | – | – | – | – | –
8 | C=CC(=O)N1CC(NC(=O)Cn2cc(I)c3cc(Cl)ccc32)C1 [Example 139] | 4150 | 520 | – | – | 40600 | > 100000 | > 250000 | – | –
9 | C=CC(=O)N1CC(N(C)C(=O)Cn2c(C)c(C(=O)N3CCN(c4ccc(Br)cn4)CC3)c3cc(Br)ccc32)C1 [Example 21] | 490 | 100 | 1950 | 27300 | – | – | – | – | –
10 | C=CC(=O)N1CC(N(C)C(=O)Cn2c(CC)c(C(=O)N3CCN(c4ccc(C#N)cn4)C[C@H]3C)c3cc(Cl)cc(C)c32)C1 [Example 4-6, 2-(5-Chloro-3-(((2R)-4-(5-cyano-2-pyridinyl)-2-methyl-1-piperazinyl)carbonyl)-2-ethyl-7-methyl-1H-indol-1-yl)-N-methyl-N-(1-(2-propenoyl)-3-azetidinyl)acetamide] | 130 | – | 730 | 86200 | – | – | – | – | –
11 | C=CC(=O)N1CC(NC(=O)Cn2cc(-c3ccccc3-c3ccccc3)c3cc(Br)cc(C)c32)C1 [Example 62] | 1180 | 250 | – | – | 7060 | > 33300 | – | – | –
12 | C=CC(=O)N1CC(N(C)C(=O)Cn2cc(I)c3cc(I)ccc32)C1 [Example 66] | 2410 | 100 | – | – | 8480 | > 33300 | 19500 | – | –
13 | C=CC(=O)N1CC(NC(=O)Cn2c(C)c(C(=O)N3CCc4c(cccc4OC)C3)c3cc(Cl)ccc32)C1 [Example 41] | 370 | 120 | 3550 | > 100000 | – | – | – | – | –
14 | C=CC(=O)N1CC(NC(=O)Cn2c3ccccc3c3cc(Br)ccc32)C1 [Example 71] | 3510 | 520 | – | – | 10600 | > 100000 | – | – | –
15 | C=CC(=O)N1CC(NC(=O)Cn2c(C3CC3)c(C(=O)N3CCN(c4ccc(C#N)cn4)CC3)c3cc(Cl)cc(C)c32)C1 [Example 14] | 580 | – | 1700 | > 100000 | – | – | – | – | –
16 | C=CC(=O)N1CC(NC(=O)Cn2c(C)c(-c3ccccc3C3CC3)c3cc(Cl)ccc32)C1 [Example 36] | 710 | 200 | – | – | 3310 | > 33300 | – | – | –
17 | C=CC(=O)N1CC(NC(=O)Cn2c3c(c4cc([N+](=O)[O-])ccc42)CCCCC3)C1 [Example 135] | 4250 | 630 | – | – | – | – | – | 38700 | > 100000
18 | C=CC(=O)N1CC(NC(=O)Cn2cc(I)c3cc(Br)cc(CC)c32)C1 [Example 87] | 4810 | 910 | – | – | 14700 | > 100000 | – | – | –
19 | C=CC(=O)N1CC(NC(=O)Cn2cc(I)c3ccc(Br)cc32)C1 [Example 70] | 8960 | 1700 | – | – | 9940 | > 100000 | – | – | –
20 | C=CC(=O)N1CC(NC(=O)Cn2c(C)c(-c3cnccc3C(C)C)c3cc(Cl)ccc32)C1 [Example 5-1, 2-(5-Chloro-2-methyl-3-(4-(2-propanyl)-3-pyridinyl)-1H-indol-1-yl)-N-(1-(2-propenoyl)-3-azetidinyl)acetamide] | 780 | – | – | – | 1320 | > 100000 | – | – | –

Row | Structure (SMILES) | IC50 [1, 4] [nM] | IC50 [1, 5] [nM] | IC50 [2, 6] [nM] | IC50 [3, 7] [nM] | IC50 [2, 8] [nM] | IC50 [3, 9] [nM] | IC50 [1, 10] [nM] | IC50 [2, 11] [nM] | IC50 [3, 12] [nM]
21 | C=CC(=O)N1CC(NC(=O)Cn2cc(-c3c(C)ccc4[nH]ncc34)c3cc(Cl)ccc32)C1 [Example 142] | 3710 | 830 | – | – | 44100 | > 100000 | – | – | –
22 | C=CC(=O)N1CC(NC(=O)Cn2c(C)c(-c3ccccc3Cc3ccccc3)c3cc(Cl)ccc32)C1 [Example 56] | 880 | – | – | – | 6170 | > 100000 | 4770 | – | –
23 | C=CC(=O)N1CC(NC(=O)Cn2cc(C(=O)N3CCc4c(cccc4OC)C3)c3cc(Cl)cc(Cl)c32)C1 [Example 69] | 190 | 130 | 9390 | > 100000 | – | – | – | – | –
24 | C=CC(=O)N1CC(NC(=O)Cn2c(C)c(-c3ccccc3CN(C)C)c3cc(Cl)ccc32)C1 [Example 32] | 6050 | – | – | – | 2730 | > 100000 | 202000 | – | –
25 | C=CC(=O)N1CC(N(C)C(=O)Cn2c(C)c(C(=O)N3CCN(c4ccc(C#N)cn4)CC3)c3cc(Br)ccc32)C1 [Example 27] | 770 | 240 | 2500 | > 100000 | – | – | – | – | –
26 | C=CC(=O)N1CC(NC(=O)Cn2c(C)c(C(=O)N3CCc4c(ccnc4OC)C3)c3cc(Cl)ccc32)C1 [Example 28] | 590 | 180 | 2630 | > 100000 | – | – | – | – | –
27 | C=CC(=O)N1CC(NC(=O)Cn2c(C)c(C(=O)N3CCc4c(cccc4OC)C3)c3cc([N+](=O)[O-])ccc32)C1 [Example 17] | 1220 | 300 | – | – | – | – | – | 1830 | > 100000
28 | C=CC(=O)N1CC(N(C)C(=O)Cn2cc(C(=O)N3CCc4c(cccc4OC)C3)c3cc(Br)ccc32)C1 [Example 107] | 590 | 180 | 23100 | > 100000 | – | – | – | – | –
29 | C=CC(=O)N1CC(NC(=O)Cn2cc(C(=O)NCCc3nc(C)c(C)s3)c3cc(Br)ccc32)C1 [Example 176] | 2800 | 600 | > 100000 | > 100000 | – | – | – | – | –
30 | C=CC(=O)N1CC(NC(=O)Cn2c3c(c4cc(Br)ccc42)CN(C(=O)OCc2ccccc2)CC3)C1 [Example 141] | 7250 | 1510 | – | – | 42400 | 19300 | – | – | –
31 | C=CC(=O)N1CC(NC(=O)Cn2cc(C(=O)NCCC(=O)Nc3ccccc3CC)c3cc(Br)cc(C)c32)C1 [Example 177] | 430 | 170 | > 100000 | > 100000 | – | – | – | – | –
32 | C=CC(=O)N1CC(NC(=O)Cn2c3ccccc3c3c(Br)cccc32)C1 [Example 117] | 2050 | 430 | – | – | 29600 | > 100000 | – | – | –
33 | C=CC(=O)N1CC(NC(=O)Cn2c(C)c(-c3ccccc3N3CCCC3)c3cc(Cl)ccc32)C1 [Example 5-4, 2-(5-Chloro-2-methyl-3-(2-(1-pyrrolidinyl)phenyl)-1H-indol-1-yl)-N-(1-(2-propenoyl)-3-azetidinyl)acetamide] | 380 | – | – | – | 5490 | > 100000 | – | – | –
34 | C=CC(=O)N1CC(NC(=O)Cn2c(C)c(C(=O)N3CCc4ccccc4C3CC)c3cc(Br)cc(C)c32)C1 (centres unmarked) [Example 59] | 810 | – | 6840 | 45900 | – | – | – | – | –
35 | C=CC(=O)N1CC(NC(=O)Cn2c(C)c(-c3ccccc3CC)c3cc(Cl)ccc32)C1 [Example 54] | 650 | 200 | – | – | 5880 | > 33300 | 4370 | – | –
36 | C=CC(=O)N1CC(NC(=O)Cn2c3ccc(Br)cc3c3ccc(Oc4cccnc4)nc32)C1 [Example 55] | 950 | 230 | – | – | 5930 | > 100000 | – | – | –
37 | C=CC(=O)N1CC(NC(=O)Cn2c(C)c(-c3cnccc3C3CC3)c3cc(Cl)ccc32)C1 [Example 18] | 970 | – | – | – | 1850 | > 100000 | – | – | –
38 | C=CC(=O)N1CC(NC(=O)Cn2c(C)c(C(=O)N3CCc4ccccc4[C@H]3C)c3cc(Br)cc(C)c32)C1 [Example 2-2-1, 2-(5-Bromo-2,7-dimethyl-3-(((1R)-1-methyl-3,4-dihydro-2(1H)-isoquinolinyl)carbonyl)-1H-indol-1-yl)-N-(1-(2-propenoyl)-3-azetidinyl)acetamide] | 160 | – | – | – | – | – | – | 560 | 47000
39 | C=CC(=O)N1CC(NC(=O)Cn2cc(C(=O)N3CCc4c(ccnc4OC)C3)c3c(Cl)c(Cl)ccc32)C1 [Example 15] | 220 | – | 1790 | > 100000 | – | – | – | – | –
